The record followed here is patent US20080051438A1, “Preventive/Therapeutic Compositions Useful for Treating Cardiovascular Diseases” (priority 2006, published 2008).

The test deals with hypertensive patients. The experiment in a line: Special investigation of combined use of cilnidipine and ARB: degree of the blood pressure controls judged by the doctor (efficacy ratio). The class given is in vivo, human. On the set-up: concentration or dose not given beside the values. As to the method: A special investigation was conducted in various medical centers, compiled, and analyzed to evaluate the safety and availability of the combined use of cilnidipine and at least one angiotensin II receptor blocker.
The subjects of the investigation were hypertensive patients which were adapted to cilnidipine. Combined administration of cilnidipine and ARB was started for the treatment of hypertension in these patients.
A prospective continuous investigation method was conducted. Such a method is continuously conducted with the registered cases with the combined administration of cilnidipine (Atelec®) and ARB, until the number of cases reaches the contracted cases for each center.
Regarding the administration method of cilnidipine, 5 to 10 mg of cilnidipine was orally administered after breakfast once a day. Meanwhile, the amount may increase or decrease depending on patient's age, symptoms, or the like. When the effect is insufficient, the amount can be increased to 20 mg once a day. The dosing period of cilnidipine was set to 12 weeks in principle.
The following items were tracked during the investigation: patient's background (sex), existence or nonexistence of previous therapeutic agents and the content thereof, targeted blood pressure (systolic BP/diastolic BP), the conditions of administration of cilnidipine and ARB, antihypertensives used in combination (those other than cilnidipine or ARB), clinical course (systolic BP/diastolic BP/heart rate), and occurrence of side-effects. As for the availability of the combined administration, in the 12th week after starting the combined administration, the doctor in attendance judged the degree of the blood pressure controls on a three-point scale of “well-controlled”, “nearly well-controlled” and “poorly-controlled”, referring to the changes in the systolic and diastolic BP. As for the safety and availability analysis for each patient background, Fisher's exact probability test or the X^2 test was used. As for the blood pressure and heart rate, the average value and the standard deviation were calculated for the subjects before the combined administration (within 4 weeks before starting the combined administration), and data after starting the combined administration were determined on each observation day, and analysis was conducted by using a paired t-test. The test was conducted as the two-sided test and less than 5% of the risk rate was regarded as significant. Furthermore, side-effects were compiled based on the naming of preferred terms (PT) of MedDRA/J ver 8.0.
As the index of availability, in the 12th week after starting the combined administration, the doctor in attendance judged the degree of the blood pressure controls on a three-point scale of “well-controlled”, “nearly well-controlled” and “poorly-controlled”.
(1) Among the 2919 cases in the availability analysis, 42 cases in which the degree of the blood pressure controls was not described, and 168 cases which could not be judged, were excluded. In the other 2709 cases, the ratio of number of cases judged as “nearly well-controlled” or higher was calculated as the efficacy ratio. Accordingly, the efficacy ratio of the subject cases in the availability analysis was 84.8% (2298 cases/2709 cases).

For the compound `COCCOC(=O)C1=C(C)NC(C)=C(C(=O)OC/C=C/c2ccccc2)C1c1cccc([N+](=O)[O-])c1` (racemic) [cilnidipine, 2-methoxyethyl-3-phenyl-2(E)-propenyl(±)-1,4-dihydro-2,6-dimethyl-4-(3-nitrophenyl)-3,5-pyridinedicarboxylate], the “efficacy ratio (cases judged nearly well-controlled or higher)” value came to 84.8% (all subject cases in the availability analysis, 12th week after starting cilnidipine + ARB, 2298 cases/2709 cases); 86.4% (cases on ARB alone, cilnidipine additionally administered (antihypertensives ARB and cilnidipine only)).
